{"source": "patent US20110020252A1", "about": "“METHOD OF LONG LASTING HUMAN SKIN TANNING” (priority 2010, published 2011)", "key": {"[1]": {"test_system": "hepatic enzyme", "conditions": "compared with Rifampin; cited from earlier work"}, "[2]": {"test_system": "skin", "conditions": "cited from earlier work"}, "[3]": {"conditions": "cited from earlier work"}, "[4]": {"conditions": "human, in vivo"}, "[5]": {"test_system": "human skin", "experiment": "Skin tanning with oral Rifampin plus sun/UVR exposure (patient, volunteers, tanning booth users)"}, "[6]": {"conditions": "600 mg to 1200, up to 6 months or more, tuberculosis treatment; cited from earlier work"}, "[7]": {"experiment": "Safety of Rifampin at 600 to 1200 mg daily", "format": "in vivo, human", "conditions": "600 mg to 1200 mg as a daily dose", "source_text": "Symptoms of overdose may include swelling of face or around eyes, itching over the entire body, orange or red discoloration of skin or eyes, nausea, vomiting, drowsiness, and loss of consciousness. If overdose is suspected, contact your local poison control center or emergency room immediately. One needs to take the prescribed amount for tanning to avoid any overdosing.\nIt has one of the best safety records taken for such a long time. It can be safely used for tanning in the doses of 600 to 1200 mg (dose depending on the weight) day orally for 3-5 days or till one obtains the desired tan without any untoward effects."}}}
{"smiles": "CO[C@H]1/C=C/O[C@@]2(C)Oc3c(C)c(O)c4c(c3C2=O)C2=NC3(CCN(CC(C)C)CC3)NC2=C(NC(=O)/C(C)=C\\C=C\\[C@H](C)[C@H](O)[C@@H](C)[C@@H](O)[C@@H](C)[C@H](OC(C)=O)[C@@H]1C)C4=O", "note": "[Rifabutin]", "values": [{"measurement": "hepatic enzyme induction", "setting": "[1]", "value": "less hepatic enzyme induction"}]}
{"smiles": "O=C[C@H](O)[C@H](O)[C@H](O)CO", "note": "[D-ribose]", "values": [{"measurement": "effect on wound surface", "setting": "[2]; applied directly to a wound", "value": "caused the surface to become brown"}, {"measurement": "effect on tanning", "setting": "[2]; in water applied to the skin", "value": "showed no such effect on tanning"}]}
{"smiles": "CO[C@H]1/C=C/O[C@@]2(C)Oc3c(C)c(O)c4c(O)c(c(/C=N/N5CCN(C)CC5)c(O)c4c3C2=O)NC(=O)/C(C)=C\\C=C\\[C@H](C)[C@H](O)[C@@H](C)[C@@H](O)[C@@H](C)[C@H](OC(C)=O)[C@@H]1C", "note": "[Rifampin]", "values": [{"measurement": "plasma levels, mean", "setting": "[3]; 600 mg dose on an empty stomach", "value": 7000, "unit": "ng/mL"}, {"measurement": "effect of antacids on absorption", "setting": "[3]; antacids", "value": "do not affect absorption"}, {"measurement": "administered drug excreted unchanged through the urine", "setting": "[3]; in vivo", "value": "about 7%"}, {"measurement": "excretion into breast milk", "setting": "[3]; in vivo", "value": "excreted into breast milk"}, {"measurement": "fraction metabolized by the liver microsomal enzymes", "setting": "[3]; in vivo", "value": "Approximately 85%"}, {"measurement": "time after which almost the entire drug is deacetylated", "setting": "[3]; in vivo", "value": "about 6 hours"}, {"measurement": "urinary elimination, share of the dose that is excreted", "setting": "[3]; in vivo", "value": "about 30%"}, {"measurement": "time to peak plasma concentrations", "setting": "[3]; orally administered", "value": "1 to 2", "unit": "h"}, {"measurement": "peak blood concentration when taken with a meal", "setting": "[3]; taken with a meal", "value": 36, "unit": "%"}, {"measurement": "dose eliminated within 24 hours", "setting": "[3]; within 24 hours", "value": "Approximately 50%"}, {"measurement": "time until urine and facial orange coloration disappears", "setting": "[4]", "value": "≤ 24", "unit": "h"}, {"measurement": "tanning effect by skin type", "setting": "[5]; […]", "value": "more pronounced in brown skinned"}, {"measurement": "dandruff production", "setting": "[5]; experimental test individuals using this method of tanning", "value": "less dandruff production"}, {"measurement": "skin staining of tuberculosis patients", "setting": "[5]; use for many months with exposure to Sun light", "value": "became much darkly stained"}, {"measurement": "tanning result", "setting": "[5]; volunteers and tanning booth users, minimum UVR exposure", "value": "good natural looking long lasting tanning"}, {"measurement": "adverse effects", "setting": "[6]", "value": "without any serious adverse effect"}, {"measurement": "overdose effects", "setting": "[7]", "value": "haven't noticed any overdose effects"}]}
